Assay results: patent publication US5436273A, “Psychoactive propargylamine derivatives used in the treatment of anxiety, psychotic states or aggression” (Lowchol Scientific, Inc., priority 1993, dated 1995)
Read-outs that look alike come from different tables or passages of the source.

Legend:
[1] = Acute toxicity test; conditions: mouse, in vivo, po; read-out: LD50
Method: CD #1 mice (20-30 g) are used for this test. The animals are individualy housed in glass beakers for a 2 hour period of acclimatization without food and water.

[2] = system: spontaneous motor activity in mice; assay: Inhibition of spontaneous motor activity in mice; format: in vivo, CD #1 mice; conditions: for ED50: Mus musculus, ip, 0.5 h
Method: 4. Inhibition of Spontaneous Motor Activity in Mice
Female CD #1 mice (20-30 g) are used for this experiment. The effect of the compound to be studied on spontaneous activity was evaluated by an automated […] XYZ system. This system allows the simultaneous quantification of the following parameters:
number of stereotypic movements;
number of vertical movements;
number of clockwise revolutions; and
number of counterclockwise revolutions.
(§1) Two animals are studied simultaneously, one treated and one control. After a 2 hour period of acclimatization to the room, a first activity count of 10 minutes duration is perfomed. The compound to be studied is then administered i.p. and the spontaneous activity is reevaluated 30 minutes later over a period of 10 minutes.

[3] = system: spontaneous motor activity in rats; assay: Inhibition of spontaneous motor activity in rats; format: in vivo, Sprague Dawley rats; conditions: for ED50: Rattus norvegicus, ip, 0.5 h, i.p., 30 minutes
Method: as §1
5. Inhibition of Spontaneous Motor Activity in Rats
The method is the same as described above for mice, except that because of the size of the animals (Sprague Dawley rats; 300 g), the test and control animals are not evaluated simultaneously, but alternatively.

[4] = system: conditioned avoidance response in rats; assay: Inhibition of conditioned avoidance response in rats; format: in vivo, Sprague Dawley rats; conditions: rats
From the text: 6. Inhibition of Conditioned Avoidance Response in Rats
Male Sprague Dawley rats (200-250 g) are trained to avoid an electric foot shock, by continuously changing room with the appropriate visuals and auditory signals, in an automatic 2-way conditioned avoidance apparatus (Coulbourn Instrument Co.). Only the animals that perform at least a 70% avoidance (3 successive training sessions) are kept for the experiment.
The day of the experiment, the selected animals are submitted to a pre-treatment control session. The compound to be studied is then administered i.p. and the animals are placed back in the apparatus for evaluation 30 minutes later. Diazepam was used as a standard.

[5] = system: righting reflex / ethanol narcosis in mice; assay: Potentiation of sleeping time induced by ethanol in mice; format: in vivo, CD #1 mice; conditions: subhypnotic dose of ethanol, mice
Method: 7. Potentiation of Sleeping Time Induced by Ethanol in Mice
This test was done with male CD #1 mice of 25-35 g. The mice are injected intraperitoneally (8 mice per dose). A subhypnotic dose of ethanol (12 ml/kg of 50% ethanol solution) is administered orally 30 minutes later.
The loss of the righting reflex is evaluated, for each animal, 30 minutes after the administration of the alcohol. It is considered that there is a potentialization of ethanol narcosis if the righting time exceeded 30 seconds.
The results which are reported in Table 7 are expressed in terms of the percentage of animals displaying a loss of the righting reflex versus the administered dose. Chlorpromazine (5 mg/kg i.p.) is used as a standard.

[6] = system: exploratory behavior in rats; assay: Inhibition of exploratory behavior in rats (hole poking); format: in vivo, Sprague-Dawley rats; conditions: rats
Method: 8. Inhibition of Exploratory Behavior in Rats (Hole Poking).
This test is done with Sprague-Dawley male rats of about 300 g. Activity is evaluated with a […] XYZ activity cage connected to a […] […] DCM-4. A perforated plate (16 holes of 2-5 cm diameter) is placed in the enclosure and on the activity case to register vertical activity. The number of times the rat placed his snout into the holes during a 10 minute period is recorded. The test was started 30 minutes after the interperitoneal injection of the compound to be studied.
The results which are reported in Table 8 are expressed in terms of the dose required to diminish by 50% the exploratory behavior, with reference to animals injected with the carrier only. Diazepam and buspirone are used as standards.

[7] = Effect on body temperature, buspirone in rats; format: in vivo, Sprague Dawley rats
Method: Female CD #1 mice (20-30 g) are used. Rectal temperature is recorded before and one hour after s.c. administration of the compound to be studied (N=8/doses×4 doses). The solvent used is sterile water for intravenous injection.
The results which are reported in Table 9 are expressed in terms of the variation of temperature for different doses. Buspirone was tested on Sprague Dawley rats.

[8] = Rotarod neurotoxicity test in mice; conditions: mouse, rotarod, po

With `O=C1CC2(CCCC2)CC(=O)N1CCCCN1CCN(c2ncccn2)CC1` [Buspirone, reference compound] the LD50 [1] was 622 mg/kg, the “inhibition of spontaneous motor activity (in words)” value [2] was “inhibit spontaneous motor activity in mice and rats” and the ED50 ([2]; i.p., 30 minutes, read-out: ED50, clockwise revolutions) was 17.9 ± 6.9 mg/kg. It also gave an ED50 ([2]; i.p., 30 minutes, read-out: ED50, horizontal activity) of 20.5 ± 16.7 mg/kg, an ED50 ([2]; i.p., 30 minutes, read-out: ED50, movement time) of 19.9 ± 8.9 mg/kg and an ED50 ([2]; i.p., 30 minutes, read-out: ED50, stereotypy time) of 22.7 ± 13.7 mg/kg. For the same compound, the ED50 ([2]; i.p., 30 minutes, read-out: ED50, total distance) was 22.6 ± 15.8 mg/kg, the “ED50, counterclockwise revolutions” value ([2]; i.p., 30 minutes) was “no dose-response” and the “ED50, number of movements” value ([2]; i.p., 30 minutes) was “no dose-response”. The “ED50, number of stereotypic movements” value ([2]; i.p., 30 minutes) was “no dose-response”, the “ED50, vertical activity” value ([2]; i.p., 30 minutes) was “no dose-response” and the “ED50, vertical movements” value ([2]; i.p., 30 minutes) was “no dose-response”. The “ED50, vertical time” value ([2]; i.p., 30 minutes) was “no dose-response”, the “inhibition of spontaneous motor activity (in words)” value [3] was “inhibit spontaneous motor activity in mice and rats” and the ED50 ([3]; read-out: ED50, clockwise revolutions) was 2.3 ± 0.9 mg/kg. For the same compound, the ED50 ([3]; read-out: ED50, counterclockwise revolutions) was 2.9 ± 0.7 mg/kg, the ED50 ([3]; read-out: ED50, horizontal activity) was 2.7 ± 0.8 mg/kg and the ED50 ([3]; read-out: ED50, movement time) was 3.2 ± 0.6 mg/kg. The ED50 ([3]; read-out: ED50, number of movements) was 5.3 ± 0.9 mg/kg, the ED50 ([3]; read-out: ED50, number of stereotypic movements) was 3.1 ± 0.8 mg/kg and the ED50 ([3]; read-out: ED50, stereotypy time) was 1.7 ± 0.6 mg/kg. The ED50 ([3]; read-out: ED50, total distance) was 2.8 ± 0.7 mg/kg, the “inhibition of conditioned avoidance response (in words)” value [4] was “inhibit conditioned avoidance in rats, but are less active than diazepam” and the “potentiation of ethanol (in words)” value [5] was “more effective than compound N^o 3”. For the same compound, the ED50 ([6]; Rattus norvegicus, ip, 0.5 h, i.p., 30 minutes, read-out: dose required to diminish by 50% the exploratory behavior) was 2.8 ± 0.6 mg/kg, the “inhibition of exploratory behavior (in words)” value [6] was “more potent, in this respect, than diazepam but they rapidly lose their ability to produce this effect after the first administration” and the “Temp. Difference from Control” value ([7]; dose 10, Sprague Dawley rats) was -2.7. The “Temp. Difference from Control” value ([7]; dose 30, Sprague Dawley rats) was -3.6, the “Temp. Difference from Control” value ([7]; dose 100, Sprague Dawley rats) was -5.8 and the TD50 [8] was 135 mg/kg.
